US20100210562A1, “USE OF IL-1 RECEPTOR PEPTIDE, ALONE OR IN COMBINATION WITH D-ALA-GLN-OCTADECYL ESTER, AS A THERAPEUTIC AGENT” (priority 2007, published 2010)
Where no end group is shown, it is not given here.

Assays:
[1] = system: hepatitis B virus (HBV) ayw strain; assay: HBV experimental assay system, secreted HBV DNA by TaqMan PCR in HepG2-2.2.15; type: cell-based; conditions: 10 micrograms per ml; 6 days; HBV DNA in supernatant
[2] = system: Th1/Th2 cytokine production (IL-2, IL-4, IL-5, IFN-γ, TNF-α) in murine spleen cells; assay: Th1/Th2 cytokine profiling assay in ovalbumin-restimulated spleen cells; type: cell-based, Balb/c mice; conditions: 10 micrograms per ml; ovalbumin restimulation; 72 hours
Description: The Balb/c mice (originated in 1923, it is a popular strain and is used in many different research disciplines. Also classified as an inbred from the production of 20 or more successive brother-sister matings, the Balb/c mouse is albino and small in size) were immunized on Days 1, 15, and 29 with Ovalbumin (Ovalbumin is the main protein found in egg white, commonly used to stimulate an immunological reaction in test animals) in PBS (5 micrograms/injection). On day 50, spleens of the mice were harvested (3 weeks after last boost with Ovalbumin). Cells were cultured (2×10^5/well in triplicate) and incubated with culture medium or test peptides—10 micrograms per ml—for 30 min. Thereafter, additional Ovalbumin was added to the cells at 10 micrograms/ml for in vitro restimulation of the cells. 72 hours later, cell supernatants were harvested and assayed using the Becton Dickinson Mouse Th1/Th2 Cytokine CBA Kit.

[3] = system: Primary Human endothelial cells (HUVEC); assay: Endothelial cell migration assay; type: cell-based; conditions: 10 micrograms per ml; 22 hours
Protocol: Thereafter, designated concentration of testing peptides—10 micrograms per ml—was added in duplicate wells.

[4] = system: HUVEC; assay: Endothelial tube formation assay; type: cell-based, human; conditions: 10 micrograms per ml; 20 hours; average tubule length
Description: Positive control was vehicle only. […] Raw data were expressed as average tubule lenghs in pixels±standard deviation.

[5] = system: HCMV strain AD169; assay: HCMV plaque formation assay in MRC-5 cells; conditions: for inhibition of HCMV plaque formation as compared to the virus control experiment: 10 micrograms per ml, 7-10 days
[6] = system: HIV-1IIIB; conditions: positive controls; MTS readout

D-Ala-Gln-octadecyl ester [Peptide 2]
inhibition of HBV replication as compared to the virus control infection [1]: 66.0% | change of the production of IL-2 in murine spleen cells [2]: did not significantly change | change of the production of IL-4 in murine spleen cells [2]: did not significantly change | decrease of the production of IFN-γ in murine spleen cells [2]: 98.1% | decrease of the production of IL-5 in murine spleen cells [2]: 74.2% | decrease of the production of TNF-a in murine spleen cells [2]: 71.3% | increase of the migration of endothelial cells [3]: 2% | inhibition of the tube formation of human endothelial cells [4]: 10% | inhibition of HCMV plaque formation as compared to the virus control experiment [5]: 2.9%

Lys-Ile-Cys-Ile-Arg-Ile-Gln-Ile-Ser-OH (KICIRIQIS-OH) [Peptide 1]
inhibition of HBV replication as compared to the virus control infection [1]: 41.0% | change of the production of IL-2 in murine spleen cells [2]: did not significantly change | change of the production of IL-4 in murine spleen cells [2]: did not significantly change | decrease of the production of IFN-γ in murine spleen cells [2]: did not significantly change | decrease of the production of IL-5 in murine spleen cells [2]: did not significantly change | decrease of the production of TNF-a in murine spleen cells [2]: 97% | inhibition of the migration of human endothelial cells [3]: 32% | inhibition of the tube formation of human endothelial cells [4]: 12% | inhibition of HCMV plaque formation as compared to the virus control experiment [5]: did not inhibit

CC(C)(C)NC(=O)[C@@H]1CN(Cc2cccnc2)CCN1C[C@@H](O)C[C@@H](Cc1ccccc1)C(=O)N[C@H]1c2ccccc2C[C@H]1O [indinavir]
antiviral activity of positive control compounds (HIV-1) [6]: expected levels of antiviral activity

Nc1nc(O)c2ncn(COC(CO)CO)c2n1 [Ganciclovir, reference compound]
antiviral activity of positive control compound (HCMV) ([5]; positive control): expected levels of antiviral activity

Cc1cn([C@H]2C[C@H](N=[N+]=[N-])[C@@H](CO)O2)c(=O)[nH]c1=O [AZT]
antiviral activity of positive control compounds (HIV-1) [6]: expected levels of antiviral activity
